Reference: patent publication US6872738B1, “Product comprising at least a no synthase inhibiting substance associated with at least a phospholipase a2 inhibiting substance” (Societe de Conseils de Recherches et D'Applications …, priority 1999, dated 2005)
Values joined by “and” are separate entries in the source; they are usually repeats but may differ in a detail not shown here. Equal entries are not always repeated.

Legend:
Assay in all cases: carrageenan-induced rat's paw edema
Format in all cases: in vivo, Male Sprague Dawley rats
[1] = test system: carrageenan-induced rat's paw edema; design: key: IS: Insignificant result; *: significant result; conditions: Example 4; 30 mg/kg ip
Method: (§1) The activity of the compounds of the invention was evaluated in vivo on a model of carrageenan-induced rat's paw edema.
(§2) Male Sprague Dawley rats (Charles River) weighing 170 to 180 g on the day of the experiment are kept indoors for 5 to 8 days under animal husbandry conditions and are starved for 18 hours on a mesh floor before and during the experiment. The groups are constituted by 8 animals. The products are administered by intraperitoneal route (ip, 2 ml/kg), 30 minutes before the 1% Carrageenan is injected into the sole of the rats' rear right paw. The volume of the paw corresponding to the edema is measured using a water plethysmometer (Ugo Basile, APELEX) before the injection of carrageenan (t0) and 3 hours after the injection. The volume of the paw allows determination of the % of inflammation ((volume of the paw at time t after carrageenan−volume of the same paw at time to before injection of the products/volume of the paw at time t0)×100). […] This effectiveness is determined statistically by a Student test.

[2] = test system: carrageenan-induced rat's paw edema; conditions: for % inflammation: 30 minutes before 1% carrageenan, paw volume 3 hours after injection, 8 rats; for protection of the animal from the edema caused by carrageenan (in words): ip, doses of the groups of the respective example
Method: as §1, §2

[3] = test system: carrageenan-induced rat's paw edema; design: key: IS: insignificant result; ***: highly significant result
Method: as §1, §2

CN(Cc1nc(-c2cc(C(C)(C)C)c(O)c(C(C)(C)C)c2)cs1)c1ccc(NC(=N)c2cccs2)cc1.Cl [4-[3,5-bis(1,1-dimethylethyl)-4-hydroxyphenyl]-N-{4-[(imino(2-thienyl)methyl)amino]phenyl}-N-methyl-2-thiazolemethanamine hydrochloride]
significance of % inflammation (Student test) [1]: IS
% inflammation ([2]; 30 mg/kg ip): 52.8 ± 4.0%
protection of the animal from the edema caused by carrageenan (in words) [2]: inactive

O=[N+]([O-])c1cccc2cn[nH]c12 [7-nitroindazole]
significance of % inflammation (Student test) ([3]; Example 1, 25 mg/kg ip): IS
% inflammation ([2]; 25 mg/kg ip): 72.5 ± 16.1%
protection of the animal from the edema caused by carrageenan (in words) [2]: inactive

N=C(N)NN [aminoguanidine]
significance of % inflammation (Student test) ([3]; Example 2, 400 mg/kg ip): IS
significance of % inflammation (Student test) ([3]; Example 3, 400 mg/kg ip): IS
% inflammation ([2]; 400 mg/kg ip): 53.1 ± 3.4% and 60.7 ± 7.5%
protection of the animal from the edema caused by carrageenan (in words) [2]: inactive

COc1cccc2c1cc([N+](=O)[O-])c1c(C(=O)O)cc3c(c12)OCO3 [aristolochic acid]
significance of % inflammation (Student test) ([3]; Example 3, 30 mg/kg ip): IS
% inflammation ([2]; 30 mg/kg ip): 68 ± 5.1%
protection of the animal from the edema caused by carrageenan (in words) [2]: inactive

CCN(CC)CCCC(C)Nc1c2ccc(Cl)cc2nc2ccc(OC)cc12 (stereo not drawn) [mepacrine]
significance of % inflammation (Student test) ([3]; Example 1, 30 mg/kg ip): IS
significance of % inflammation (Student test) ([3]; Example 2, 30 mg/kg ip): IS
significance of % inflammation (Student test) [1]: IS
% inflammation ([2]; 30 mg/kg ip): 64.5 ± 3.7% and 53.9 ± 3.2% and 51.9 ± 2.7%
protection of the animal from the edema caused by carrageenan (in words) [2]: inactive
